Results: ChEMBL document CHEMBL4311942, “Design of Trp-Rich Dodecapeptides with Broad-Spectrum Antimicrobial Potency and Membrane-Disruptive Mechanism” (J Med Chem, 2019)
In brackets after ≈: the same amount, converted by molar mass. Where a SMILES comes first, the peptide text is derived from it.

What was measured:
Staphylococcus aureus [1] = assay: Antibacterial activity against Staphylococcus aureus ATCC 25923 incubated for 18 to 24 hrs by broth microdilution method; assay type: functional
Staphylococcus aureus [2] = assay: Antibacterial activity against Staphylococcus aureus ATCC 29213 incubated for 18 to 24 hrs by broth microdilution method; assay type: functional
Salmonella typhimurium = assay: Antibacterial activity against Salmonella enterica serovar typhimurium C77-31 incubated for 18 to 24 hrs by broth microdilution method; assay type: functional, Salmonella enterica subsp. enterica serovar Typhimurium
Escherichia coli [3] = assay: Antibacterial activity against Escherichia coli UB1005 incubated for 18 to 24 hrs by broth microdilution method; assay type: functional
Escherichia coli [4] = assay: Antibacterial activity against Escherichia coli ATCC 25922 incubated for 18 to 24 hrs by broth microdilution method; assay type: functional
[5] = system: Staphylococcus epidermidis; assay: Antibacterial activity against Staphylococcus epidermidis ATCC 12228 incubated for 18 to 24 hrs by broth microdilution method; assay type: functional
Escherichia coli [6] = assay: Antibacterial activity against Escherichia coli 20411 clinical isolate incubated for 18 to 24 hrs by broth microdilution method; assay type: functional
Acinetobacter baumannii [7] = assay: Antibacterial activity against Acinetobacter baumannii AB1901 clinical isolate incubated for 18 to 24 hrs by broth microdilution method; assay type: functional
Acinetobacter baumannii [8] = assay: Antibacterial activity against Acinetobacter baumannii AB1902 clinical isolate incubated for 18 to 24 hrs by broth microdilution method; assay type: functional
Pseudomonas aeruginosa = assay: Antibacterial activity against Pseudomonas aeruginosa 25349 clinical isolate incubated for 18 to 24 hrs by broth microdilution method; assay type: functional
Staphylococcus aureus [9] = assay: Antibacterial activity against Staphylococcus aureus 11011 incubated for 18 to 24 hrs by broth microdilution method; assay type: functional
Escherichia coli [10] = assay: Antibacterial activity against ciprofloxacin-resistant Escherichia coli ATCC 25922 incubated for 18 to 24 hrs; assay type: functional
[11] = Resistance index, ratio of MIC for antibacterial activity against ciprofloxacin-resistant Escherichia coli to MIC for Escherichia coli ATCC 25922 incubated for 18 to 24 hrs by broth microdilution method; assay type: functional
Erythrocyte = assay: Haemolytic activity in human erythrocytes assessed as lowest concentration causing 5% hemolysis after 1 hr; assay type: ADME, cell-based
[12] = Therapeutic index, ratio of MHC for human RBC to geometric mean of peptide MIC for Escherichia coli ATCC 25922; assay type: toxicity; conditions: pooled result: one value given for 6 cell lines, strains, targets or settings, read-out: TI
[13] = Cytotoxicity against mouse RAW264.7 cells assessed as cell survival at <= 32 uM after 24 hrs by MTT assay relative to control; assay type: cell-based; conditions: RAW264.7 cells, up to 32 µM, read-out: Activity
Lipopolysaccharide (LPS) = assay: Displacement of BODIPY-TR-cadaverine from Escherichia coli O111:B4 LPS assessed as increase in fluorescence intensity at 64 uM by spectrofluorophotometric method relative to control

`CC(C)(O/N=C(\C(=O)N[C@@H]1C(=O)N2C(C(=O)[O-])=C(C[n+]3ccccc3)CS[C@H]12)c1csc(N)n1)C(=O)O` [CEFTAZIDIME] gave an MIC (Staphylococcus aureus [1]) of 32 µM (≈ 17.5 µg/mL), an MIC (Staphylococcus aureus [2]) of 16 µM (≈ 8.75 µg/mL) and an MIC (Salmonella typhimurium) of 0.5 µM (≈ 0.273 µg/mL). It also gave an MIC (Escherichia coli [3]) of 0.25 µM (≈ 0.137 µg/mL), an MIC (Escherichia coli [4]) of 0.5 µM (≈ 0.273 µg/mL) and an MIC [5] of 16 µM (≈ 8.75 µg/mL). The MIC (Escherichia coli [6]) was 0.25 µM (≈ 0.137 µg/mL), the MIC (Acinetobacter baumannii [7]) was greater than 128 µM and the MIC (Acinetobacter baumannii [8]) was greater than 128 µM. For the same compound, the MIC (Pseudomonas aeruginosa) was 32 µM (≈ 17.5 µg/mL), the MIC (Staphylococcus aureus [9]) was 16 µM (≈ 8.75 µg/mL) and the MIC (Escherichia coli [10]) was 16 µM (≈ 8.75 µg/mL). The Ratio [11] was 32.

In the case of `CC1COc2c(N3CCN(C)CC3)c(F)cc3c(=O)c(C(=O)O)cn1c23` (stereo not given) [OFLOXACIN], the MIC (Staphylococcus aureus [1]) is reported as 1 µM (≈ 0.361 µg/mL), the MIC (Staphylococcus aureus [2]) is reported as 0.5 µM (≈ 0.181 µg/mL) and the MIC (Salmonella typhimurium) is reported as 0.25 µM (≈ 0.0903 µg/mL). The MIC (Escherichia coli [3]) was 0.5 µM (≈ 0.181 µg/mL), the MIC (Escherichia coli [4]) was 0.125 µM (≈ 0.0452 µg/mL) and the MIC [5] was 0.5 µM (≈ 0.181 µg/mL). The MIC (Escherichia coli [6]) was 0.125 µM (≈ 0.0452 µg/mL), the MIC (Acinetobacter baumannii [7]) was 32 µM (≈ 11.6 µg/mL) and the MIC (Acinetobacter baumannii [8]) was 32 µM (≈ 11.6 µg/mL). For the same compound, the MIC (Pseudomonas aeruginosa) was 4 µM (≈ 1.45 µg/mL), the MIC (Staphylococcus aureus [9]) was 1 µM (≈ 0.361 µg/mL) and the MIC (Escherichia coli [10]) was 0.5 µM (≈ 0.181 µg/mL). For the same compound, the Ratio [11] was 4.

`CN(C)c1ccc(O)c2c1C[C@H]1C[C@H]3[C@H](N(C)C)C(O)=C(C(N)=O)C(=O)[C@@]3(O)C(O)=C1C2=O` [MINOCYCLINE] gave an MIC (Staphylococcus aureus [1]) of 0.25 µM (≈ 0.114 µg/mL), an MIC (Staphylococcus aureus [2]) of 0.25 µM (≈ 0.114 µg/mL) and an MIC (Salmonella typhimurium) of 8 µM (≈ 3.66 µg/mL). It also gave an MIC (Escherichia coli [3]) of 4 µM (≈ 1.83 µg/mL), an MIC (Escherichia coli [4]) of 1 µM (≈ 0.457 µg/mL) and an MIC [5] of 0.25 µM (≈ 0.114 µg/mL). For the same compound, the MIC (Escherichia coli [6]) was 2 µM (≈ 0.915 µg/mL), the MIC (Acinetobacter baumannii [7]) was 0.25 µM (≈ 0.114 µg/mL) and the MIC (Acinetobacter baumannii [8]) was 0.25 µM (≈ 0.114 µg/mL). For the same compound, the MIC (Pseudomonas aeruginosa) was 8 µM (≈ 3.66 µg/mL), the MIC (Staphylococcus aureus [9]) was 0.25 µM (≈ 0.114 µg/mL) and the MIC (Escherichia coli [10]) was 64 µM (≈ 29.3 µg/mL). The Ratio [11] was 64.

With GENTAMICIN the MIC (Staphylococcus aureus [1]) was 0.25 µM, the MIC (Staphylococcus aureus [2]) was 0.5 µM and the MIC (Salmonella typhimurium; Salmonella enterica subsp. enterica serovar Typhimurium) was 8 µM. For the same compound, the MIC (Escherichia coli [3]) was 4 µM, the MIC (Escherichia coli [4]) was 4 µM and the MIC [5] was 0.5 µM. For the same compound, the MIC (Escherichia coli [6]) was 1 µM, the MIC (Acinetobacter baumannii [7]) was greater than 128 µM and the MIC (Acinetobacter baumannii [8]) was greater than 128 µM. For the same compound, the MIC (Pseudomonas aeruginosa) was 2 µM, the MIC (Staphylococcus aureus [9]) was 1 µM and the MIC (Escherichia coli [10]) was 4 µM. For the same compound, the Ratio [11] was 1.

With `CC(C)C[C@H](NC(=O)[C@H](CCCNC(=N)N)NC(=O)[C@H](CCCCN)NC(=O)[C@H](Cc1c[nH]c2ccccc12)NC(=O)[C@@H](NC(=O)[C@H](CCCCN)NC(=O)[C@H](CCCCN)NC(=O)[C@H](Cc1c[nH]c2ccccc12)NC(=O)[C@H](CC(C)C)NC(=O)[C@H](CCCNC(=N)N)NC(=O)[C@@H](N)CCCNC(=N)N)[C@@H](C)O)C(=O)N[C@@H](Cc1c[nH]c2ccccc12)C(N)=O` (H-RRLWKKTWKRLW-NH2) the MIC (Staphylococcus aureus [1]) was 16 µM (≈ 28.1 µg/mL), the MIC (Staphylococcus aureus [2]) was 8 µM (≈ 14 µg/mL) and the MIC (Salmonella typhimurium) was 8 µM (≈ 14 µg/mL). The MIC (Escherichia coli [3]) was 4 µM (≈ 7.02 µg/mL), the MIC (Escherichia coli [4]) was 4 µM (≈ 7.02 µg/mL) and the MIC [5] was 8 µM (≈ 14 µg/mL). It also gave an MHC (Erythrocyte) greater than 128 µM, a selectivity ratio [12] of 35.9 and a viability at 24 h [13] of no less than 70%.

With `O=C(O)c1cn(C2CC2)c2cc(N3CCNCC3)c(F)cc2c1=O` [CIPROFLOXACIN] the MIC (Staphylococcus aureus [1]) was 0.5 µM (≈ 0.166 µg/mL), the MIC (Staphylococcus aureus [2]) was 0.5 µM (≈ 0.166 µg/mL) and the MIC (Salmonella typhimurium) was 4 µM (≈ 1.33 µg/mL). For the same compound, the MIC (Escherichia coli [3]) was 2 µM (≈ 0.663 µg/mL), the MIC (Escherichia coli [4]) was 2 µM (≈ 0.663 µg/mL) and the MIC [5] was 0.5 µM (≈ 0.166 µg/mL). It also gave an MIC (Staphylococcus aureus [9]) of 0.5 µM (≈ 0.166 µg/mL), an MIC (Escherichia coli [10]) of 256 µM (≈ 84.8 µg/mL) and an Activity (Lipopolysaccharide (LPS)) of 1.6%.
